Test results from paper PMC12595484, “Optimizing multifunctional fluorescent ligands for intracellular labeling” (Proceedings of the National Academy of Sciences of the …, 2025).
Values joined by “and” are separate entries in the source; they are usually repeats but may differ in a detail not shown here. Identical values can stand only once. Like-named read-outs stand apart in the source and are kept apart here.

Experiments:
[1] = tested on: OMP25–msGFP–HaloTag fusion protein in HEK293T cells; assay: Pulse–chase HaloTag labeling efficiency, SDS–PAGE/in-gel fluorescence; type: cell-based; conditions: 2 h, mean ± SEM
Description: PBS, 2% (v/v) SDS, 1% (v/v) Triton x-100, 10 mM EDTA, and protease inhibitors (2 mM PMSF, aprotinin, leupeptin, and pepstatin A). Samples were then incubated at 50 °C for 3–4 min after the addition of Laemmli sample buffer (SB; Bio-Rad, 1610747) with β-mercaptoethanol (Bio-Rad, 1610710). For protein detection, 10–20 µL of the sample was subjected to SDS-PAGE, using 10% Tris-Glycine gels (TGX) (Bio-Rad, 5671034) with Tris-Glycine buffer (Bio-Rad, 1610732). […]
Quantification of HaloTag labeling efficiency using in-gel fluorescence. HEK293T cells were cultured, incubated and transfected with pF(UG) hSyn HaloTag-TEV-4×GS-msGFP-mito using lipofectamine LTX reagent as described above. To examine saturation of HaloTag, we screened for fluorescence plateau using 1 μM of JF479-HaloTag ligand,4 JF549-HaloTag ligand (2HTL) and […]
(2HTL) and JF608-HaloTag ligand (3HTL) reached a fluorescence plateau, and they were chosen as saturating counter stains or “chase” dyes for examining the labeling efficiency of biotin-JF-HaloTag ligands (13HTL–16HTL). Next, we developed an in-gel assay to independently quantitate labeling efficiencies of 13HTL–16HTL. We used JF549-HaloTag ligand (2HTL) as chase for evaluating biotin-JF608-HaloTag ligand (14HTL), biotin-JF646-HaloTag ligand (15HTL), and biotin-JF635-HaloTag ligand (16HTL). We used JF608-HaloTag ligand (3HTL) as chase for evaluating biotin-JF549-HaloTag ligand (13HTL). Each experiment consisted of testing the biotin variants 13HTL–16HTL at 100 nM and 1 μM with an incubation time of 2 h and a chase labeling incubation of 1 μM for 0.5 h. The 0.5 h chase labeling period was included with the 2 h total incubation. Each experiment consisted of the following conditions: untransfected cells; (A) transduced, but no dye; (B) non-biotinylated variant of primary label at 1 μM for 0.5 h; (C) the nonbiotinylated version of the chase JF dye at 1 μM for 0.5 h; (D) 100 nM of the nonbiotinylated version of the primary label for 2 h; (E) 100 nM of the biotinylated version of primary label for 2 h; (F) 1 μM of the nonbiotinylated version of the primary label for 2 h; (G) 1 μM of the biotinylated version of primary label for 2 h; and (H) 1 μM of the non-biotinylated version of the chase JF dye at 1 μM for 2 h. This last condition H was the same as condition C but with a longer incubation (2 h vs. 0.5 h) to allow independent verification of the chase saturation using 0.5 h incubation. Samples D–G were incubated with a nonbiotinylated chase dye at 1 μM for 0.5 h. Cells were washed and protein lysates were harvested using Bio-Rad SDS-PAGE products as described above. Specifically, cells were lysed using protein lysis buffer as described above, and adding XT Sample Buffer (Bio-Rad, 1610791) and XT Reducing Agent (Bio-Rad, 1610792). Samples were heated at 72 °C for 5 min. Samples were then loaded onto a 4–12% Criterion XT Bis-Tris gel (Bio-Rad, 3450124) and ran at 150 V for approximately 1 h. Gels were then imaged on a Chemidoc MP imager (Bio-Rad) using orange, red, and far-red filters. Bands representing HaloTag ligand were quantified by densitometry using […]
(§1) labeling efficiency calculations, bands representing saturating chase dye fluorescence (e.g., JF549) were compared to saturating primary dye fluorescence allowing estimation of the amount of […]
Where F is the fraction of HaloTag protein labeled, Ce is the experimental chase dye fluorescence signal after incubation with pulse biotin-JF-HaloTag ligand, and Cs is the saturating chase dye fluorescence without incubation with a pulse ligand.
Neuro2a cell culture, labeling, lattice light sheet microscopy (LLSM), and confocal microscopy. Neuro2a cells (ATCC, CCL-131) were cultured in Eagle's minimum essential medium (MEM, phenol red-free; Life Technologies) supplemented with 10% (v/v) fetal bovine serum (FBS), and maintained at 37 °C in a humidified 5% (v/v) CO2 environment. Cells were transiently transfected using nucleofection (Lonza) with plasmids constitutively expressing

[2] = tested on: sfGFP–BRD4 in Neuro2a cells expressing coilin–HaloTag; assay: BRD4 translocation to coilin–HaloTag, LLSM; type: cell-based
Description: The ability of JQ1 ligands to enter living cells and recruit BRD4 to defined genomic regions was evaluated using lattice light sheet fluorescence microscopy (LLSM). Neuro2a cells were transiently transfected with plasmids encoding three fusion proteins: i) HaloTag protein fused to coilin, […]; ii) superfolder GFP–BRD4; and iii) histone H2B–mCherry as a nuclear marker. The Cajal body component coilin localizes in distinct puncta in the nucleus ([62]) compared to the diffuse euchromatic distribution of BRD4. […]
Neuro2a cell culture, labeling, lattice light sheet microscopy (LLSM), and confocal microscopy. […]
Full 3D volumes at multiple stage positions were collected at 2 minute intervals for 90 minutes total. […] The recruitment of histone H3.3 was assessed by imaging after 24 h incubation with 19HTL. […]
LLSM imaging processing. Raw image data volumes were deskewed and rotated, then empirically deconvolved using a Richardson-Lucy maximum likelihood algorithm using experimentally measured PSFs for each color channel for 30 iterations. […] These segmentation masks were then used to isolate each nucleus for further quantitative analyses. […] The amount of BRD4 signal was then assessed in- versus outside HaloTag labeled domains throughout the 90-min time-lapse acquisition. […]

[3] = Determination of logD7.4 (miniaturized shake flask, octanol–PBS); type: physicochemical; conditions: pH 7.4
Description: Detailed descriptions of the materials and methods are provided in the supporting information. Multifunctional rhodamine–HaloTag ligands (13HTL–16HTL and 18HTL–20HTL) were synthesized using palladium-catalyzed cross-coupling reactions to install 3-carboxyazetidine moieties onto rhodamine scaffolds, followed by amide bond formation with biotin–PEG2–NH2, (S)-JQ1–PEG2–NH2, or (R)-JQ1–PEG2–NH2. Spectroscopic properties (λabs, λem, ε, and Φf) were determined in 10 mM HEPES, pH 7.3. The lactone–zwitterion equilibrium constants (KL–Z) were measured in 1:1 (v/v) dioxane–water mixtures. Octanol–water distribution coefficients (logD7.4) were determined by miniaturized shake-flask partitioning experiments using PBS (pH 7.4) and 1-octanol. Cell culture experiments employed HEK293T, U2OS, and Neuro2a cells transfected with HaloTag fusion constructs and labeled with ligands (100 nM to 1 μM, 0.5 to 2 h at 37 °C), followed by fluorescence microscopy using confocal or lattice light-sheet microscopy. Affinity purification studies utilized streptavidin magnetic beads to capture biotin-labeled HaloTag conjugates, with analysis by SDS-PAGE and in-gel fluorescence detection. […]
Reported values are averages of at least two measurements.
Determination of logD7.4. The log of distribution coefficients at pH 7.4 was determined in octanol–phosphate-buffered saline (PBS) using a miniaturized shake flask setup described previously.6, 7 Briefly, 150 mL each of octanol and PBS pH 7.4 were stirred vigorously for 12–16 h. The layers were allowed to stand for at least 24 h for phase separation. The separated layers were collected and served as PBS saturated with octanol (PBS*) and octanol saturated with PBS (octanol*). Stock solutions (1 mM or 5 mM) of ligands were prepared in DMSO and diluted in PBS* to obtain 1 μM or 10 μM (3–5 mL) of the standard (std). This standard was used to prepare appropriate dilutions using octanol*, in triplicate, in 2-mL glass vials. The leftover standard was used to determine the standard concentration (Cstd). The vials were vortexed for 1 min and shaken horizontally at 700 rpm for 2 h. The vials were then shaken upright at 150 rpm for 2 h to allow the phases to separate. The octanol* layer was pipetted out, and the PBS* layer was used for further analyses. The concentrations of ligands in the standard and PBS* (CPBS*) were determined via fluorescence measurements of 200 μL of PBS* or std in 96-well plates on the Cytation 5 Multimode Plate Reader (BioTek). For Si-rhodamine containing ligands, 2–20 μL of […]
trifluoroacetic acid was added to each well of the 96-well plate prior to the fluorescence measurements. Reported values are averages of at least two measurements. The logD7.4 was obtained as described previously using equation 2: logD = log *’(" × r − 1. +)*+∗ / (2) […]
where Cstd is the standard concentration in PBS, CPBS* is the concentration in PBS after partitioning, r is the dilution factor of the standard solution, VPBS* is the volume of PBS used in the partitioning, and Voctanol* is the volume of octanol used in the partitioning.
Plasmid construction for mitochondria imaging and affinity purification. HaloTag, amplified from the pHTC HaloTag CMV-neo Vector (Promega; G7711) and monomeric-superfolder green fluorescent protein (msGFP; lab stock), was fused to the mitochondrial targeting signal from OMP25,8 interspacing flexible GS(GSS)4 linkers between each domain by PCR Splicing by Overlap Extension (SOE). This construct was subcloned into hSynapsin promoter bearing a copy of FUGW.9 FUGW was a gift from David Baltimore (Addgene plasmid # 14883; RRID:
Addgene_14883).10 This construct was designated as pF(UG) hSyn HaloTag-TEV-4×GS-msGFP- […]
HEK293T cell culture. HEK293T cells (ATCC) were passaged before 80% confluency by trypsinization (Corning; 25-053-CI) and trituration. The cell suspension was then plated on glass coverslips (Warner instruments; 64-0734, CS-18R17) coated with poly-D-lysine (Thermofisher; […]

[4] = 1:1 (v/v) dioxane–water, cited from earlier work
[5] = parameters: method as in PMID 28869757, PMID 25599551; conditions: 10 mM HEPES, pH 7.3; ref 27 and 50; cited from earlier work
[6] = tested on: sfGFP–BRD4 in Neuro2a cells expressing HP1a–HaloTag; assay: BRD4 translocation to HP1a–HaloTag, LLSM; type: cell-based; conditions: 90 min
Excerpt: Given its lower fluorescence background and more efficacious recruitment of BRD4, we focused on (S)-JQ1–JF635–HaloTag ligand (19HTL) for subsequent experiments. To test the generality of 19HTL in recruiting BRD4, we imaged cells expressing heterochromatin protein 1a (HP1a) fused to HaloTag (Fig. 7A). HP1a is localized within constitutive heterochromatin as its N-terminal chromodomain binds to methylated histone H3 ([65]).
(2HTL) and JF608-HaloTag ligand (3HTL) reached a fluorescence plateau, and they were chosen as saturating counter stains or “chase” dyes for examining the labeling efficiency of biotin-JF-HaloTag ligands (13HTL–16HTL). Next, we developed an in-gel assay to independently quantitate labeling efficiencies of 13HTL–16HTL. […] Bands representing HaloTag ligand were quantified by densitometry using […]
as §1
Where F is the fraction of HaloTag protein labeled, Ce is the experimental chase dye fluorescence signal after incubation with pulse biotin-JF-HaloTag ligand, and Cs is the saturating chase dye fluorescence without incubation with a pulse ligand. […]

| Compound | logD [3] | Φf [5] | ε [5] | λabs [5] [nm] | λem [5] [nm] | other results |
| --- | --- | --- | --- | --- | --- | --- |
| O=C(CCCC[C@@H]1SC[C@@H]2NC(=O)N[C@@H]21)NCCOCCOCCCCCCCl [17HTL, biotin–HaloTag ligand, reference compound] | – | – | – | – | – | labeling efficiency ([1]; 100 nM pulse): 32.0 ± 9.3%; labeling efficiency ([1]; 1 µM pulse): 92.1 ± 0.4% |
| Cc1sc2c(c1C)C(c1ccc(Cl)cc1)=N[C@@H](CC(=O)OC(C)(C)C)c1nnc(C)n1-2 [JQ1, (S)-JQ1, reference compound] | – | – | – | – | – | effect of excess free JQ1 on BRD4 recruitment by 19HTL ([2]; 25 μM (S)-JQ1 with 20 nM 19HTL, coilin–HaloTag, confocal): inhibited BRD4 recruitment |
| C[Si]1(C)c2cc(N3CCC3)ccc2C2(OC(=O)c3ccccc32)c2ccc(N3CCC3)cc21 [compound 5, Janelia Fluor 646] | 3.98 | 0.54 | 5,000 M^−1cm^−1 | 646 | 664 | KL–Z ([4]; parent dyes, ref 27 and 50): 0.0014 |
| C[Si]1(C)c2cc(N3CC(F)C3)ccc2C2(OC(=O)c3ccccc32)c2ccc(N3CC(F)C3)cc21 [compound 6, JF635] | 4.1 | 0.66 | ~ 400 M^−1cm^−1 | 635 | 652 | KL–Z [4]: ≈ 0.0001 and 0.0001 |
| (R)-JQ1–JF635–HaloTag ligand [20HTL] | – | – | – | – | – | BRD4 recruitment to coilin–HaloTag sites ([2]; Neuro2a cells, LLSM, 90 min): no GFP–BRD4 recruitment; BRD4 translocation to HP1a–HaloTag [6]: no GFP–BRD4 recruitment |
